# Assays:
# [1] = biological target: EphA2 receptor (Mus musculus, UniProt Q03145); type: binding; details: for activity in the binding assay (in words): EphA2-ephrin-A1 ELISA
# [2] = system: PC3 cells; test: LDH assay; type: cell-based, human; details: 2 h, at the tested concentrations
# Chain of EphA2 receptor (Q03145 26-538 limits assumed): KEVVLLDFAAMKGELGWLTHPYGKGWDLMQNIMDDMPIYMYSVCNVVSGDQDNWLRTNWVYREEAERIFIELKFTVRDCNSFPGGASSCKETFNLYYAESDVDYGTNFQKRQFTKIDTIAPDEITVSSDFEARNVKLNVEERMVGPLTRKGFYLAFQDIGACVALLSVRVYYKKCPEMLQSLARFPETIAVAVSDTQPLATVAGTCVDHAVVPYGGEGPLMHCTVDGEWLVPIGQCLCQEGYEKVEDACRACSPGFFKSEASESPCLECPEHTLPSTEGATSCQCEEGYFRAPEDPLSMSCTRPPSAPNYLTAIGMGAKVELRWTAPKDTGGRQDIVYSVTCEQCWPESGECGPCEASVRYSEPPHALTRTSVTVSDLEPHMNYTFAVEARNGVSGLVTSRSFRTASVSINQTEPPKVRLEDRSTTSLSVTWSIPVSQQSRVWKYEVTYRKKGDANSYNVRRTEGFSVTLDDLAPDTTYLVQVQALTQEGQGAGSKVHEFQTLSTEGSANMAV
smiles,measurement,setting,value
"C[C@H](CCC(=O)NCC(=O)O)[C@H]1CC[C@H]2[C@@H]3CC[C@@H]4C[C@H](O)CC[C@]4(C)[C@H]3CC[C@]12C [Compound 2, glycolithocholic acid]",reversibility of binding,"[1]; 100 μM compound for 1 hour, with or without washing before 50 ng/mL ephrin-A1-Fc",reversible binder
same,nature of the antagonism,[1]; from Schild plot,competitive binding
CC(=O)CNC(=O)CC[C@@H](C)[C@H]1CC[C@H]2[C@@H]3CC[C@@H]4C[C@H](O)CC[C@]4(C)[C@H]3CC[C@]12C [Compound 3],IC50,[1],> 316 µM
same,activity in the binding assay (in words),[1],inactive
C[C@H](CCC(=O)N[C@@H](CC(N)=O)C(=O)O)[C@H]1CC[C@H]2[C@@H]3CC[C@@H]4C[C@H](O)CC[C@]4(C)[C@H]3CC[C@]12C [Compound 10],IC50,[1],> 316 µM
C[C@H](CCC(=O)N[C@H](CC(N)=O)C(=O)O)[C@H]1CC[C@H]2[C@@H]3CC[C@@H]4C[C@H](O)CC[C@]4(C)[C@H]3CC[C@]12C [Compound 11],IC50,[1],> 316 µM
C[C@H](CCC(=O)N[C@@H](CC(=O)O)C(=O)O)[C@H]1CC[C@H]2[C@@H]3CC[C@@H]4C[C@H](O)CC[C@]4(C)[C@H]3CC[C@]12C [Compound 12],IC50,[1],> 316 µM
same,activity in the binding assay (in words),[1],inactive
C[C@H](CCC(=O)N[C@H](CC(=O)O)C(=O)O)[C@H]1CC[C@H]2[C@@H]3CC[C@@H]4C[C@H](O)CC[C@]4(C)[C@H]3CC[C@]12C [Compound 13],IC50,[1],> 316 µM
same,activity in the binding assay (in words),[1],inactive
C[C@H](CCC(=O)N[C@@H](Cc1c[nH]c2ccccc12)C(=O)O)[C@H]1CC[C@H]2[C@@H]3CC[C@@H]4C[C@H](O)CC[C@]4(C)[C@H]3CC[C@]12C [Compound 20],cytotoxic effect (LDH assay),[2],nor had cytotoxic effect
